# Where a SMILES comes first, the peptide text is derived from it. [ ]: non-standard residue; d: D form. The star is where a group is joined. Doxorubicin(3'-N) = COc1cccc2c1C(=O)c1c(O)c3c(c(O)c1C2=O)C[C@@](O)(C(=O)CO)C[C@@H]3O[C@H]1C[C@H](N*)[C@H](O)[C@H](C)O1; Dovitinib(4-NH) = CN1CCN(c2ccc3nc(-c4c(N*)c5c(F)cccc5[nH]c4=O)[nH]c3c2)CC1; Thyronine(3,5,3'-I3) = N[C@@H](Cc1cc(I)c(Oc2ccc(O)c(I)c2)c(I)c1)C(=O)O; Mal(CH2CH2O)6CH2CH2CO = O=C1C=CC(=O)N1CCOCCOCCOCCOCCOCCOCCC(=O)*; MaleimidoPEG4propanoyl = O=C1C=CC(=O)N1CCOCCOCCOCCOCCC(=O)*; Hexanoyl(6-maleimido) = O=C1C=CC(=O)N1CCCCCC(=O)*; Propanoyl(3-maleimido) = O=C1C=CC(=O)N1CCC(=O)*; X1 = O=C1C=CC(=O)N1CCOCCOCCOCCC(=O)*; PEG6 = NCCOCCOCCOCCOCCOCCOCCC(=O)O; X3 = O=C1C=CC(=O)N1CCOCCOCCC(=O)*; PEG4 = NCCOCCOCCOCCOCCC(=O)O; PEG3 = NCCOCCOCCOCCC(=O)O
# Tested on: Human hepatoma HepG2 cells
# Assay: Human liver cancer HepG2 tumors in nude mice
# Assay type: in vivo
# Settings: 54 umol/kg IV once a week for 4 weeks
# Experimental: • 1. Animals: nude mice aged 6-8 weeks, all female. • 2. Preparation of tumor models
# Human hepatoma HepG2 cells were purchased from ATCC and identified according to the instructions provided. […] Randomization was performed when the tumor size reached 100 mm^3.
# Treatment was then initiated, and the day of initiation of treatment was counted as Day 1. • 3) Treatment process
# According to the clinical application of the corresponding compound, the drug was administered intravenously (IV). The compound and the control drug were administered at a dose of 54 umol/kg, and DOX could only be administered at a dose of 18 umol/kg due to toxicity limitations.
row,Compound,Tumor volume (mm^3) Day 28
1,COc1cccc2c1C(=O)c1c(O)c3c(c(O)c1C2=O)C[C@@](O)(C(=O)CO)C[C@@H]3O[C@H]1C[C@H](NC(=O)[C@H](CC(C)C)NC(=O)[C@H](CC(N)=O)NC(=O)[C@H](C)NC(=O)[C@H](C)NC(=O)CCOCCOCCN2C(=O)C=CC2=O)[C@H](O)[C@H](C)O1 [QHL-009-DOX] (X3-AANL-{Doxorubicin(3'-N)}),0 mm^3
2,COc1cccc2c1C(=O)c1c(O)c3c(c(O)c1C2=O)C[C@@](O)(C(=O)CO)C[C@@H]3O[C@H]1C[C@H](NC(=O)[C@H](CC(C)C)NC(=O)[C@H](CC(N)=O)NC(=O)[C@H](C)NC(=O)[C@H](C)NC(=O)CCOCCOCCOCCOCCOCCOCCN2C(=O)C=CC2=O)[C@H](O)[C@H](C)O1 [QHL-012-DOX] ({Mal(CH2CH2O)6CH2CH2CO}-AANL-{Doxorubicin(3'-N)}),197.4 ± 104.5 mm^3
3,COc1cccc2c1C(=O)c1c(O)c3c(c(O)c1C2=O)C[C@@](O)(C(=O)CO)C[C@@H]3O[C@H]1C[C@H](NC(=O)[C@H](CC(C)C)NC(=O)[C@H](CC(N)=O)NC(=O)[C@H](C)NC(=O)[C@H](C)NC(=O)CCOCCOCCOCCOCCN2C(=O)C=CC2=O)[C@H](O)[C@H](C)O1 [QHL-011-DOX] (MaleimidoPEG4propanoyl-AANL-{Doxorubicin(3'-N)}),98.1 ± 48.4 mm^3

# Same assay, conditions: Mus musculus, HepG2, iv, 672 h, read-out: Tumor inhibition rate (%) Day 28
row,Compound,inhibition in vivo at 54 µmol/kg
1,COc1cccc2c1C(=O)c1c(O)c3c(c(O)c1C2=O)C[C@@](O)(C(=O)CO)C[C@@H]3O[C@H]1C[C@H](NC(=O)[C@H](CC(C)C)NC(=O)[C@H](CC(N)=O)NC(=O)[C@H](C)NC(=O)[C@H](C)NC(=O)CCOCCOCCN2C(=O)C=CC2=O)[C@H](O)[C@H](C)O1 [QHL-009-DOX] (X3-AANL-{Doxorubicin(3'-N)}),100%
2,COc1cccc2c1C(=O)c1c(O)c3c(c(O)c1C2=O)C[C@@](O)(C(=O)CO)C[C@@H]3O[C@H]1C[C@H](NC(=O)[C@H](CC(C)C)NC(=O)[C@H](CC(N)=O)NC(=O)[C@H](C)NC(=O)[C@H](C)NC(=O)[C@H](CC(=O)O)NC(=O)CCCCCN2C(=O)C=CC2=O)[C@H](O)[C@H](C)O1 [QHL-120-DOX] ({Hexanoyl(6-maleimido)}-DAANL-{Doxorubicin(3'-N)}),92.8%
3,COc1cccc2c1C(=O)c1c(O)c3c(c(O)c1C2=O)C[C@@](O)(C(=O)CO)C[C@@H]3O[C@H]1C[C@H](NC(=O)[C@H](CC(C)C)NC(=O)[C@H](CC(N)=O)NC(=O)[C@H](C)NC(=O)[C@H](C)NC(=O)CCOCCOCCOCCOCCOCCOCCNC(=O)CCN2C(=O)C=CC2=O)[C@H](O)[C@H](C)O1 [QHL-096-DOX] ({Propanoyl(3-maleimido)-PEG6}-AANL-{Doxorubicin(3'-N)}),100%
4,COc1cccc2c1C(=O)c1c(O)c3c(c(O)c1C2=O)C[C@@](O)(C(=O)CO)C[C@@H]3O[C@H]1C[C@H](NC(=O)[C@H](CC(C)C)NC(=O)[C@H](CC(N)=O)NC(=O)[C@H](C)NC(=O)[C@H](C)NC(=O)CCOCCOCCOCCOCCOCCOCCN2C(=O)C=CC2=O)[C@H](O)[C@H](C)O1 [QHL-012-DOX] ({Mal(CH2CH2O)6CH2CH2CO}-AANL-{Doxorubicin(3'-N)}),93.2%
5,COc1cccc2c1C(=O)c1c(O)c3c(c(O)c1C2=O)C[C@@](O)(C(=O)CO)C[C@@H]3O[C@H]1C[C@H](NC(=O)[C@H](CC(C)C)NC(=O)[C@H](CC(N)=O)NC(=O)[C@H](C)NC(=O)[C@H](C)NC(=O)CCOCCOCCOCCOCCN2C(=O)C=CC2=O)[C@H](O)[C@H](C)O1 [QHL-011-DOX] (MaleimidoPEG4propanoyl-AANL-{Doxorubicin(3'-N)}),96.6%
6,COc1cccc2c1C(=O)c1c(O)c3c(c(O)c1C2=O)C[C@@](O)(C(=O)CO)C[C@@H]3O[C@H]1C[C@H](NC(=O)[C@H](CC(C)C)NC(=O)[C@H](CC(N)=O)NC(=O)[C@H](C)NC(=O)[C@H](C)NC(=O)CCOCCOCCOCCOCCNC(=O)CCN2C(=O)C=CC2=O)[C@H](O)[C@H](C)O1 [QHL-093-DOX] ({Propanoyl(3-maleimido)-PEG4}-AANL-{Doxorubicin(3'-N)}),94.2%

# Tested on: not listed separately
# Assay: Water solubility test (observation and HPLC)
# Assay type: physicochemical
# Settings: thermodynamic from solid
# Experimental: The compounds prepared in accordance with the examples of the disclosure and the reference compounds C1, C2, C3 and C4 were lyophilized (−70° C.).
row,Compound,solubility
1,"C[C@H](NC(=O)CCOCCOCCOCCN1C(=O)C=CC1=O)C(=O)N[C@@H](C)C(=O)N[C@H](CC(N)=O)C(=O)N[C@@H](Cc1cc(I)c(Oc2ccc(O)c(I)c2)c(I)c1)C(=O)O [QHL-154-T3] (X1-AA[dN][Thyronine(3,5,3'-I3)]-OH)",> 10000 µg/mL
2,CC(C)C[C@H](NC(=O)[C@H](CC(N)=O)NC(=O)[C@H](C)NC(=O)[C@H](C)NC(=O)CCOCCOCCOCCNC(=O)CCN1C(=O)C=CC1=O)C(=O)Nc1c(-c2nc3ccc(N4CCN(C)CC4)cc3[nH]2)c(=O)[nH]c2cccc(F)c12 [QHL-090 - Dovitinib] ({Propanoyl(3-maleimido)-PEG3}-AANL-{Dovitinib(4-NH)}),> 10000 µg/mL
3,CCOCc1nc2c(NC(=O)OCc3ccc(NC(=O)[C@H](CC(N)=O)NC(=O)[C@H](C)NC(=O)[C@H](C)NC(=O)CCOCCOCCOCCOCCOCCOCCNC(=O)CCN4C(=O)C=CC4=O)cc3)nc3ccccc3c2n1CC(C)(C)O [QHL-095-Resiquimod],> 10000 µg/mL
4,"C[C@H](NC(=O)CCOCCOCCOCCOCCOCCOCCN1C(=O)C=CC1=O)C(=O)N[C@@H](C)C(=O)N[C@H](CC(N)=O)C(=O)N[C@@H](Cc1cc(I)c(Oc2ccc(O)c(I)c2)c(I)c1)C(=O)O [QHL-155-T3] ({Mal(CH2CH2O)6CH2CH2CO}-AA[dN][Thyronine(3,5,3'-I3)]-OH)",> 10000 µg/mL
5,CCOCc1nc2c(NC(=O)OCc3ccc(NC(=O)C(CC(N)=O)NC(=O)[C@H](C)NC(=O)[C@H](C)NC(=O)CCOCCOCCOCCOCCNC(=O)CCN4C(=O)C=CC4=O)cc3)nc3ccccc3c2n1CC(C)(C)O (some centres unmarked) [QHL-092-Resiquimod],> 10000 µg/mL
6,CCOCc1nc2c(NC(=O)OCc3ccc(NC(=O)[C@@H](CC(N)=O)NC(=O)[C@H](C)NC(=O)[C@H](C)NC(=O)CCOCCOCCN4C(=O)C=CC4=O)cc3)nc3ccccc3c2n1CC(C)(C)O [QHL-005-Resiquimod],> 10000 µg/mL
7,C[C@@H](NC(=O)CCOCCOCCNC(=O)CCN1C(=O)C=CC1=O)C(=O)N[C@H](C)C(=O)N[C@H](CC(N)=O)C(=O)Nc1ccc(COC(=O)N2CC(C)(C)c3ccc(NC(=O)c4cccnc4NCc4ccncc4)cc32)cc1 [QHL-089-Motesani],> 20000 µg/mL
8,CCOCc1nc2c(NC(=O)OCc3ccc(NC(=O)[C@H](CC(N)=O)NC(=O)[C@H](C)NC(=O)[C@H](C)NC(=O)CCOCCOCCOCCOCCOCCOCCOCCOCCOCCOCCOCCOCCN4C(=O)C=CC4=O)cc3)nc3ccccc3c2n1CC(C)(C)O [QHL-147-Resiquimod],> 10000 µg/mL

# From patent US20230414771A1, “PREPARATION AND USE OF IMMUNOSTIMULATORY CONJUGATED COMPLEXES FOR TARGETED DELIVERY AND ACTIVATION” (YAFEI SHANGHAI BIOLOGY MEDICINE SCIENCE & TECHNOLOGY CO., …, priority 2020, published 2023)
